Assay results: patent publication US9174998B2, “(6S,9aS)-N-benzyl-6-[(4-hydroxyphenyl)methyl]-4,7-dioxo-8-({6-[3-(piperazin-1-yl)azetidin-1-yl]pyridin-2-yl}methyl)-2-(prop-2-en-1-yl)-octahydro-1H-pyrazino[2,1-c][1,2,4]triazine-1-carboxamide compound” (Eisai R&D Management Co., Ltd., priority 2013, dated 2015)
pIC50: −log10 of the molar value. ≈ marks a conversion by molar mass, not a printed value. Read-outs that look alike come from different tables or passages of the source.

Key:
[1] = Evaluation of metabolic stability; assay type: in vitro ADME, human; conditions: 0.2 mg/mL HLM, 0.1 μM test substance, 15 minutes at 37° C., with vs without NADPH production
Procedure: A test substance was dissolved in DMSO so that the concentration of the resultant solution became 20 mM, and the solution was diluted with DMSO so that the concentration of the resultant solution became 1 mM. The metabolic stability of the test substance was evaluated using a human liver microsome (HLM) in which human liver was pooled. An assay buffer solution contained 0.2 mg/mL of HLM, a 0.1 M of phosphate potassium buffer solution (pH 7.4), 0.1 mM of EDTA, 0.33 mM of NADP+, 8 mM of glucose-6-phosphate, 0.1 U/mL of glucose-6-phosphate dehydrogenase, 6 mM of MgCl2, 0.1 μM of a test substance (final concentration in DMSO: 0.01%) in 0.15 mL of the final incubation volume. Fifteen minutes after the initiation of the reaction at 37° C., 0.15 mL of a acetonitrile/methanol mixed solution (7:3, by volume) was added to the solution to terminate the reaction. After centrifugation, the resultant supernatant was analyzed by LC-MSMS, peak areas were compared under the presence or absence of the production of NADPH, and the residual ratio of the test substance was calculated.

[2] = PAMPA test (parallel artificial membrane permeability assay); assay type: in vitro ADME; conditions: phosphate buffer pH 6.8, about 200 μM, about 5 hours, room temperature, read-out: Test Example 4 membrane permeation coefficient Pe
Procedure: A test solution (see below) was stirred while shaking at room temperature for about 5 hours using a 96-well PAMPA plate (BD Biosciences) in which a lipid had been precoated onto a polyvinylidene fluoride (PVDF) film to evaluate the membrane permeation coefficient Pe (cm/s) of each compound dissolved in the test solution (concentration: about 200 μM) upon the transport of the compound from a donor side to an acceptor side through a lipid membrane. The Pe value was calculated in accordance with equations 1 and 2, and the concentration of the compound on the donor side and the acceptor side was measured by a HPLC-UV method. In 0.3 mL of the test solution on the donor side is contained about 1% (v/v) of DMSO, since 3 μL of a DMSO solution containing the compound at a concentration of 20 mM was added to the test solution.
Test solution: a phosphate buffer solution having a pH value of 6.8 (90 mM of phosphate, 48 mM of NaCl, 5.4 mM of KCl)
Conditions for stirring: a multishaker MS-300 (AS ONE Corporation), 350 rpm
[formula] CD(t): compound concentration in donor well at time t CA(t): compound concentration in acceptor well at time t VD: donor well volume (0.3 mL) VA: acceptor well volume (0.2 mL) A: filter area (0.3 cm^2)

[3] = Evaluation of solubility (DMSO stock into PBS, HPLC-UV); assay type: physicochemical; conditions: Dulbecco's phosphate-buffered saline pH 7, room temperature, about 15 minutes shaking, values greater than 200 μM regarded as 200 μM, read-out: Test Example 3 solubility
Procedure: To 0.25 mL of a test solution a mentioned below was added 2.5 μL of a DMSO solution having a compound concentration of 20 mM. The resultant solution was shaken at room temperature for about 15 minutes (the conditions for the shaking are mentioned below). Subsequently, a supernatant was collected by a suction filtration under a reduced pressure. A DMSO solution having a compound concentration of 200 μM was used as a standard solution, and the concentration of a compound in a filtrate which was quantified by a HPLC-UV method was employed as a solubility (rounded off to the whole number). In this evaluation, since a value 200 μM became the upper limit operationally, all of quantification values greater than 200 μM were regarded as 200 μM.
Test solution: GIBCO (registered trade name) Dulbecco's phosphate-buffered saline (pH 7, Life Technologies Corporation)
Conditions for shaking: a microplate shaker N-704 (Nissinrika Corporation), speed 6

Wnt signal = test: Detection of Wnt signal (TOPglow luciferase reporter, LiCl-stimulated); assay type: cell-based; conditions: Homo sapiens; HEK293 clone carrying pNeo-TOP reporter; LiCl stimulation; luciferase luminescence; read-out: Test Example 1 IC50 (concentration required for inhibiting the Wnt signal activity by 50%)
Procedure: pcDNA3.1(+) (invitrogen) was cleaved with restriction enzymes BglII and NotI, and an adapter BEHKS having a sequence shown below (containing restriction enzyme sites BglII, EcoRI, HindIII, KpnI, SacI and NotI) was inserted thereinto, thereby producing a plasmid pNeo-HKS.
Subsequently, a fragment having a length of about 2700 bp (containing a Wnt-responsive sequence and a luciferase gene), which was prepared by cleaving from a TOPglow plasmid contained in a TOPglow/FOPglow TCF Reporter Kit (upstate Catalog#17-366) with restriction enzymes HindIII and KpnI, was inserted between HindIII and KpnI in pNeo-HKS, thereby producing a plasmid pNeo-TOP. The plasmid pNeo-TOP was introduced into human fetus-derived renal cell strain HEK293, then a compound was selected using G418, and then a cell clone strain was established by a limiting dilution method. The cell clone strain was subjected to a Wnt signal detection test.
The cell clone strain was subcultured in a D-MEM glucose-rich culture medium (Wako Pure Chemical Industries, Ltd.) containing 10% FBS, and cells in a growth phase were used in the test. Cells were collected using trypsin-EDTA, the number of the cells was counted, and then the cells were suspended in a D-MEM glucose-rich culture medium containing 10% FBS so that the number of cells became 2×10^5 cells/mL. The cell suspension was added to a 96-well cell culture plate (Greiner Bio-One Co., Ltd., product number: 655083) in an amount of 0.1 mL/well and then cultured overnight in a 5% CO2 incubator (37° C.). After the culturing, a substance to be tested, which was dissolved in DMSO, was diluted with a D-MEM glucose-rich culture medium containing 10% of FBS and 80 mM of LiCl to produce a sample solution. The sample solution (0.1 mL) was added to each well and then cultured in a 5% CO2 incubator (37° C.) […]. Six hours after the addition of the sample solution, a supernatant was removed from each well, and then 50 μL of Bright-Glo™ Luciferase substrate (Promega, product number: E2620) was added thereto. The plate was put on a plate mixer for several seconds, and then the emission of light from each well was measured using a EnVision™ Multilabel plate reader (PerkinElmer Co., Ltd.). The Wnt signal activation rate (%) of each well was determined, and a concentration (IC50) which is required for inhibiting the Wnt signal activity of a substance of interest by 50% was calculated, wherein the luminosity of a well to which a sample solution was not added and LiCl was added was defined as a 100% Wnt signal activity and the luminosity of a well to which either of a sample solution or LiCl was not added was defined as a 0% Wnt signal activity.

[4] = aqueous buffer, kinetic from dmso stock

| SMILES | Test Example 2 residual ratio of the test substance [1] [%] | Papp [2] [×10⁻⁶ cm/s] | solubility [3, 4] [µM] | pIC50 (Wnt signal) | solubility [3] [µM] |
| --- | --- | --- | --- | --- | --- |
| C=CCN1CC(=O)N2[C@@H](Cc3c(F)cc(O)cc3F)C(=O)N(Cc3cccc(N4CC(N5CCN(C)[C@@H](C)C5)C4)n3)C[C@@H]2N1C(=O)NCc1ccccc1 [Example 16, (6S,9aS)-N-Benzyl-6-((2,6-difluoro-4-hydroxyphenyl)methyl)-8-((6-(3-((3S)-3,4-dimethylpiperazin-1-yl)azetidin-1-yl)pyridin-2-yl)methyl)-4,7-dioxo-2-(prop-2-en-1-yl)-octahydro-1H-pyrazino[2,1-c][1,2,4]triazine-1-carboxamide] | 63 | 0.51 | 197 (≈ 147 µg/mL) | 6.66 | – |
| C=CCN1CC(=O)N2C(CN(Cc3cccc(N4CC(N5CCN(CC)[C@H](C)C5)C4)n3)C(=O)[C@@H]2Cc2ccc(O)cc2)N1C(=O)NCc1ccccc1 (stereo partly drawn) [Example 19, (6S,9aS)-N-Benzyl-8-((6-3-((3R)-4-ethyl-3-methylpiperazin-1-yl)azetidin-1-yl)pyridin-2-yl)methyl-6-((4-hydroxyphenyl)methyl)-4,7-dioxo-2-(prop-2-en-1-yl)-octahydro-1H-pyrazino[2,1-c][1,2,4]triazine-1-carboxamide] | 30 | 0.91 | – | 6.64 | 200 (≈ 144 µg/mL) |
| C=CCN1CC(=O)N2[C@@H](Cc3ccc(O)cc3)C(=O)N(Cc3cccc(N4CC(N5CCN(C)C[C@@H]5C)C4)n3)C[C@@H]2N1C(=O)NCc1ccccc1 [Example 6, (6S,9aS)-N-Benzyl-8-((6-(3-((2S)-2,4-dimethylpiperazin-1-yl)azetidin-1-yl)pyridin-2-yl)methyl)-6-((4-hydroxyphenyl)methyl)-4,7-dioxo-2-(prop-2-en-1-yl)-octahydro-1H-pyrazino[2,1-c][1,2,4]triazine-1-carboxamide] | 55 | 1.27 | 195 (≈ 138 µg/mL) | 6.60 | – |
| C=CCN1CC(=O)N2[C@@H](Cc3ccc(O)cc3F)C(=O)N(Cc3cccc(N4CC(N5CC[C@@H](N(C)C)C5)C4)n3)C[C@@H]2N1C(=O)NCc1ccccc1 [Reference Example 2, (6S,9aS)-N-Benzyl-8-((6-(3-((3R)-3-(dimethylamino)pyrrolidin-1-yl)azetidin-1-yl)pyridin-2-yl)methyl)-6-((2-fluoro-4-hydroxyphenyl)methyl)-4,7-dioxo-2-(prop-2-en-1-yl)-octahydro-1H-pyrazino[2,1-c][1,2,4]triazine-1-carboxamide] | 51 | 0.65 | 195 (≈ 142 µg/mL) | 6.48 | – |
| C=CCN1CC(=O)N2[C@@H](Cc3ccc(O)cc3)C(=O)N(Cc3cccc(N4CC(N5CCN(C)CC5)C4)n3)C[C@@H]2N1C(=O)NCc1ccccc1 [Example 29, (6S,9aS)-N-Benzyl-6-((4-hydroxyphenyl)methyl)-8-((6-(3-(4-methylpiperazin-1-yl)azetidin-1-yl)pyridin-2-yl)methyl)-4,7-dioxo-2-(prop-2-en-1-yl)-octahydro-1H-pyrazino[2,1-c][1,2,4]triazine-1-carboxamide] | 63 | – | – | 6.33 | 200 (≈ 139 µg/mL) |

The next molecules have a higher pIC50 (Wnt signal) than those just listed; values first:

| Test Example 2 residual ratio of the test substance [1] [%] | Papp [2] [×10⁻⁶ cm/s] | solubility [3, 4] [µM] | pIC50 (Wnt signal) | solubility [3] [µM] | SMILES |
| --- | --- | --- | --- | --- | --- |
| 60 | 0.89 | 195 (≈ 145 µg/mL) | 6.68 | – | C=CCN1CC(=O)N2[C@@H](Cc3c(F)cc(O)cc3F)C(=O)N(Cc3cccc(N4CC(N5CCN(C)C[C@@H]5C)C4)n3)C[C@@H]2N1C(=O)NCc1ccccc1 [Example 17, (6S,9aS)-N-Benzyl-6-((2,6-difluoro-4-hydroxyphenyl)methyl)-8-((6-(3-((2S)-2,4-dimethylpiperazin-1-yl)azetidin-1-yl)pyridin-2-yl)methyl)-4,7-dioxo-2-(prop-2-en-1-yl)-octahydro-1H-pyrazino[2,1-c][1,2,4]triazine-1-carboxamide] |
| 26 | 1.91 | – | 7.11 | 200 (≈ 145 µg/mL) | C=CCN1CC(=O)N2[C@@H](Cc3ccc(O)cc3)C(=O)N(Cc3ccc(F)c(N4CC(N5CCN(C)[C@H](C)C5)C4)n3)C[C@@H]2N1C(=O)NCc1ccccc1 [Example 24, (6S,9aS)-N-Benzyl-8-((6-(3-((3R)-3,4-dimethylpiperazin-1-yl)azetidine-1-yl)-5-fluoropyridin-2-yl)methyl)-6-((4-hydroxyphenyl)methyl)-4,7-dioxo-2-(prop-2-en-1-yl)-octahydro-1H-pyrazino[2,1-c][1,2,4]triazine-1-carboxamide] |
| 23 | 2.17 | 197 (≈ 146 µg/mL) | 7.21 | – | C=CCN1CC(=O)N2[C@@H](Cc3ccc(O)cc3F)C(=O)N(Cc3cccc(N4CC(N5CCN(CC)[C@@H](C)C5)C4)n3)C[C@@H]2N1C(=O)NCc1ccccc1 [Example 20, (6S,9aS)-N-Benzyl-8-((6-(3-((3S)-4-ethyl-3-methylpiperazin-1-yl)azetidin-1-yl)pyridin-2-yl)methyl)-6-((2-fluoro-4-hydroxyphenyl)methyl)-4,7-dioxo-2-(prop-2-en-1-yl)-octahydro-1H-pyrazino[2,1-c][1,2,4]triazine-1-carboxamide] |
